The values that follow come from patent US20190337924A1, “SUBSTITUTED HYDANTOIN AND THIOHYDANTOIN DERIVATIVES AS ANDROGEN RECEPTOR ANTAGONISTS” (Janssen Pharmaceutica NV, priority 2016, published 2019).

The target of assay [1] is T1, wild-type Androgen Receptor (AR-wt) (Homo sapiens, UniProt P10275).
T1 construct: expressed in transfected cells; host or cells: LNCaP
T1 sequence (P10275 1-920): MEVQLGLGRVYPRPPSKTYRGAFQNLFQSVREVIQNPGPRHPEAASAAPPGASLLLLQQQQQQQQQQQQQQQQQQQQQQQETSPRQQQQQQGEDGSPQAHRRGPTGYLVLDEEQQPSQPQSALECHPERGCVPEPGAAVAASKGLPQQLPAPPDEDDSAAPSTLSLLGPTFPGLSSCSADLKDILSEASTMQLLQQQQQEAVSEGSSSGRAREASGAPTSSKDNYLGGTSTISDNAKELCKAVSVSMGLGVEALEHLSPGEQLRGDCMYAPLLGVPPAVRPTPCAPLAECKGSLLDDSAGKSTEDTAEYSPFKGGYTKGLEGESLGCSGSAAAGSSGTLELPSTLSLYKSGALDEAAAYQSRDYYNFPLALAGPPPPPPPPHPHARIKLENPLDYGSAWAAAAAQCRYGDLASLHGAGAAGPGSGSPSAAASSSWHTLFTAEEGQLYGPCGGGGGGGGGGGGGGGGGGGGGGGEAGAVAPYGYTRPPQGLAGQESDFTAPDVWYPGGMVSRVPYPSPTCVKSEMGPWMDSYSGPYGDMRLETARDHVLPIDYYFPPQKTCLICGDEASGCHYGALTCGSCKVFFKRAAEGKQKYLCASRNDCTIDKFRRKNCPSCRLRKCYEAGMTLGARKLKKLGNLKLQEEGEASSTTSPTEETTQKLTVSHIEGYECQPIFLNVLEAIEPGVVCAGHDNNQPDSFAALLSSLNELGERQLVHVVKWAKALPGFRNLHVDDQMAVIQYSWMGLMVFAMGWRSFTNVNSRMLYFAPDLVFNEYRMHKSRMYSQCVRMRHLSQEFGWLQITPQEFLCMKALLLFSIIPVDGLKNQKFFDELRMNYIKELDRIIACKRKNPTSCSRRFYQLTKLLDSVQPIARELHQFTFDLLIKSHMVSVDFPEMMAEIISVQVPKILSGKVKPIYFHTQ
Kind of assay: AR reporter assay, LNCaP-AR-wt ANT (antagonist mode). The note with it: for Emax: read-out: LNCaP-AR-wt ANT MAX % Inh. Format: cell-based. From the text:
(§1) LNCaP AR (cs) and LNCaP F876L luciferase cell lines were generated by transduction of each cell line (description of cell line generation Joseph J D, Lu N, Qian J, Sensintaffar J, Shao G, Brigham D, Moon M, Maneval E C, Chen I, Darimont B, Hager J H. A clinically relevant androgen receptor mutation confers resistance to second-generation antiandrogens enzalutamide and ARN-509. Cancer Discov 2013; 3:1020-1029) with an Androgen Response Element Firefly Luciferase lentiviral construct at an MOI (multiplicity of infection) of 50 following the manufacturer's instructions (Qiagen). A stable pooled-population cell line was generated using puromycin (Life Technologies) selection at 1:10,000 v/v. The protocol below was used for both cell lines and for testing of the compounds of Formula (I) of the present invention.
(§2) LNCaP cells were grown to about 80% confluence, media removed and cells rinsed in Hank's balanced salt solution prior to separation from the plate with 0.05% Trypsin EDTA. Cells were lifted and trypsin negated in complete CSS (charcoal stripped serum) culture media. CSS was maintained on cells for 24 h prior to assay, at which time 5,000 cells/[…] were seeded in Greiner 384 well White/White Tissue Culture Treated Plates and incubated for a further 1-2 hours at 37° C., 5% CO2, prior to addition of 10 μL of 4× Test Compounds (compounds described herein) or Assay Controls (all diluted in complete media containing 10% css). A further 10 μL of 4× R-1881 Agonist Challenge (antagonist assay) or Buffer (agonist assay) was then added (all diluted in complete media containing 10% css). Agonist challenge was at 400 pM for WT assay and 600 pM for F876L assay. Plates containing cells and compounds herein were incubated for a further 20-24 hours at 37° C., 5% CO2 before addition of 40 μL/well of Steady-Glo Luciferase Assay System Reagent (Promega#E2520). After 1 h, plates were read for luminescence on a BMG Pherastar.
Agonist challenge: R-1881 (Metribolone)—Agonist
Antagonist control (low control): 5-(5-(4-((1-Methylpiperidin-4-yl)oxy)phenyl)-8-oxo-6-thioxo-5,7-diazaspiro[3.4]octan-7-yl)-3-(trifluoromethyl)picolinonitrile (WO 2011/103202, EXAMPLE 19, Compound 129, CAS #1332390-06-3).
(1−(Sample RLU−Ave Low Control RLU[10 μM Antagonist Control])/(Ave High Control RLU [400 pM R-1881]−Ave Low Control RLU[10 μM Antagonist Control]))*100.
(§3) EC/IC50 calculations were achieved utilizing calculated RLU data and data fitting macros. Data were fit using least-squares methods to the following formula: […]
(§4) As used herein: • pIC50 is defined as −Log10(IC50 expressed in [Molar]). • pEC50 is defined as −Log10(EC50 expressed in [Molar]). • MAX % Inh is defined as the maximum % inhibition of R1881 control response observed for a compound over the tested concentration range. • MAX % Stim is defined as the maximum % stimulation (agonist response) observed for a compound over the tested concentration range. • LNCaP-AR-wt ANT refers to the reporter assay using LNCaP cells stably transfected with the Androgen Response Element Firefly Luciferase lentiviral construct and wild-type Androgen Receptor (AR-wt) in Antagonist mode. • LNCaP-AR-wt AG refers to the reporter assay using LNCaP cells stably transfected with the Androgen Response Element Firefly Luciferase lentiviral construct and wild-type Androgen Receptor (AR-wt) in Agonist mode. • LNCaP-AR-F876L ANT refers to the reporter assay using LNCaP cells stably transfected with the Androgen Response Element Firefly Luciferase lentiviral construct and F876L mutant Androgen Receptor (AR-F876L) in Antagonist mode. • LNCaP-AR-F876L AG refers to the reporter assay using LNCaP cells stably transfected with the Androgen Response Element Firefly Luciferase lentiviral construct and F876L mutant Androgen Receptor (AR-F876L) in Agonist mode.
In general terms: In a reporter assay the amount or activity of a reporter protein is the signal.

Assay [2] has as its target T1, wild-type Androgen Receptor (AR-wt). In words: AR reporter assay, LNCaP-AR-wt AG (agonist mode). The format is cell-based. As to conditions: for Emax: read-out: LNCaP-AR-wt AG MAX % Stim.
Text: as §1, §2
((Sample RLU−Ave Low Control RLU[DMSO/Buffer])/(Ave High Control RLU [1 μM R-1881]—Ave Low Control RLU[DMSO/Buffer]))*100.
as §3, §4

Where [3] appears, read: antagonist mode, 400 pM R-1881 challenge, luciferase reporter, -Log10(IC50 in Molar), read-out: LNCaP-AR-wt ANT pIC50 (converted).
The mark [4] stands for this setting: agonist mode (buffer, no R-1881), -Log10(EC50 in Molar), read-out: LNCaP-AR-wt AG pEC50 (converted).

SMILES strings stand for the structures. Structures can show the parent of a compound that is named as a salt. Where two headings read alike, the source gives them in different places. Where only a bound is given, the exact number is not on record here.

Consider `N#Cc1ccc(N2C(=O)C3(CCC3)N(c3ccc(OC4CCNCC4)nc3)C2=S)cc1C(F)(F)F` [Compound 13, 4-(8-Oxo-5-(6-(piperidin-4-yloxy)pyridin-3-yl)-6-thioxo-5,7-diazaspiro[3.4]octan-7-yl)-2-(trifluoromethyl)benzonitrile hydrochloride], for which, in assay [1], the IC50 was 63.1 nM and the Emax is 104%. In addition, in assay [2], the EC50 is above 15100 nM and the Emax amounted to 0.5%.
Regarding `CN1CCC(Oc2ccc(N3C(=S)N(c4ccc(C#N)c(C(F)(F)F)c4)C(=O)C34CCC4)cn2)CC1` [Compound 14, 4-(5-(6-((1-Methylpiperidin-4-yl)oxy)pyridin-3-yl)-8-oxo-6-thioxo-5,7-diazaspiro[3.4]octan-7-yl)-2-(trifluoromethyl)benzonitrile], in assay [1], the IC50 was 89.1 nM and the Emax turned out to be 104%. Moreover, in assay [2], the EC50 is above 15100 nM and the Emax came to 0.2%.
On to `N#Cc1ccc(N2C(=O)C3(CCC3)N(c3cnc(OC4CCNCC4)nc3)C2=S)cc1C(F)(F)F` [Compound 15, 4-(8-Oxo-5-(2-(piperidin-4-yloxy)pyrimidin-5-yl)-6-thioxo-5,7-diazaspiro[3.4]octan-7-yl)-2-(trifluoromethyl)benzonitrile], for which the IC50 in assay [1] (setting [3]) is 158 nM. Moreover, the Emax in assay [1] amounted to 102%. Further, in assay [2], the EC50 is above 15100 nM and the Emax is -0.2%.
`CN1CCC(Oc2ncc(N3C(=S)N(c4ccc(C#N)c(C(F)(F)F)c4)C(=O)C34CCC4)cn2)CC1` [Compound 16, 4-(5-(2-((1-Methylpiperidin-4-yl)oxy)pyrimidin-5-yl)-8-oxo-6-thioxo-5,7-diazaspiro[3.4]octan-7-yl)-2-(trifluoromethyl)benzonitrile]: the IC50 in assay [1] (setting [3]) is 209 nM. Moreover, in assay [1], the Emax was determined as 102%. For the same compound, in assay [2], the EC50 was above 15100 nM and the Emax was -0.1%.
For the compound `Cc1cc(N2C(=O)C3(CCC3)N(c3ccc(OC4CCN(C)CC4)cc3)C2=S)ccc1C#N` [Compound 17, 2-Methyl-4-(5-(4-((1-methylpiperidin-4-yl)oxy)phenyl)-8-oxo-6-thioxo-5,7-diazaspiro[3.4]octan-7-yl)benzonitrile], in assay [1] (setting [3]), the IC50 is 170 nM. Further, the Emax in assay [1] was 105%; in assay [2] it was -0.1%. Further, the EC50 in assay [2] (setting [4]) was above 15100 nM.
Take `Cc1cc(N2C(=O)C3(CCC3)N(c3ccc(OC4CCN(C)CC4)nc3)C2=S)ccc1C#N` [Compound 18, 2-Methyl-4-(5-(6-((1-methylpiperidin-4-yl)oxy)pyridin-3-yl)-8-oxo-6-thioxo-5,7-diazaspiro[3.4]octan-7-yl)benzonitrile]: the IC50 in assay [1] (setting [3]) is 36.3 nM. The Emax in assay [1] was 99.4%; in assay [2], 0.6%. The EC50 in assay [2] (setting [4]) was above 15100 nM.
Regarding `COc1cc(N2C(=O)C3(CCC3)N(c3ccc(OC4CCN(C)CC4)cc3)C2=S)ccc1C#N` [Compound 19, 2-Methoxy-4-(5-(4-((1-methylpiperidin-4-yl)oxy)phenyl)-8-oxo-6-thioxo-5,7-diazaspiro[3.4]octan-7-yl)benzonitrile], the IC50 in assay [1] (setting [3]) was 141 nM. In addition, the values for the Emax in assay [1] and in assay [2] were 105% and -0.1%, respectively. For the same compound, the EC50 in assay [2] is above 15100 nM.
The corresponding values for `COc1cc(N2C(=O)C3(CCC3)N(c3ccc(OC4CCN(C)CC4)nc3)C2=S)ccc1C#N` [Compound 20, 2-Methoxy-4-(5-(6-((1-methylpiperidin-4-yl)oxy)pyridin-3-yl)-8-oxo-6-thioxo-5,7-diazaspiro[3.4]octan-7-yl)benzonitrile] are 214 nM, 100%, -0.1% and above 15100 nM.
The corresponding values for `N#Cc1ccc(N2C(=O)C3(CCC3)N(c3ccc(OC4CCNCC4)cc3)C2=S)cc1Cl` [Compound 21, 2-Chloro-4-(8-oxo-5-(4-(piperidin-4-yloxy)phenyl)-6-thioxo-5,7-diazaspiro[3.4]octan-7-yl)benzonitrile] are 331 nM, 106%, 0.1% and above 15100 nM.
On to `CN1CCC(Oc2ccc(N3C(=S)N(c4ccc(C#N)c(Cl)c4)C(=O)C34CCC4)cc2)CC1` [Compound 22, 2-Chloro-4-(5-(4-((1-methylpiperidin-4-yl)oxy)phenyl)-8-oxo-6-thioxo-5,7-diazaspiro[3.4]octan-7-yl)benzonitrile], for which, in assay [1], the IC50 is 245 nM and the Emax was determined as 98.4%. Further, in assay [2], the EC50 is above 15100 nM and the Emax is -0.2%.
The corresponding values for `N#Cc1ccc(N2C(=O)C3(CCC3)N(c3ccc(OC4CCNCC4)nc3)C2=S)cc1Cl` [Compound 23, 2-Chloro-4-(8-oxo-5-(6-(piperidin-4-yloxy)pyridin-3-yl)-6-thioxo-5,7-diazaspiro[3.4]octan-7-yl)benzonitrile hydrochloride] are 67.6 nM, 105%, above 15100 nM and 0.9%.
Taken in the same sequence, the figures for `CN1CCC(Oc2ccc(N3C(=S)N(c4ccc(C#N)c(Cl)c4)C(=O)C34CCC4)cn2)CC1` [Compound 24, 2-Chloro-4-(5-(6-((1-methylpiperidin-4-yl)oxy)pyridin-3-yl)-8-oxo-6-thioxo-5,7-diazaspiro[3.4]octan-7-yl)benzonitrile hydrochloride] were 95.5 nM, 102%, above 15100 nM and 0.3%.
